# From ChEMBL document CHEMBL1201862, “PubChem BioAssay data set” (2004)
#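 Exposure lasted 48 hours, with cells grown in 96-well plates and compounds tested at five concentrations. Here, GI50 denotes the concentration required for 50% inhibition of growth.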 Activity calls are given as the source filed them. Cut-off read from the data, not from the text of the source: active = GI50 up to about 1.1 µM and inactive = higher.
# Assays:
# Test in all cases: inhibition of tumour cell growth, NCI panel, 48 h
# UACC-62 = system: UACC-62
# NCI/ADR-RES = system: NCI/ADR-RES
# 786-0 = system: 786-0
# M14 = system: M14
# ACHN = system: ACHN
# OVCAR-5 = system: OVCAR-5
# PC-3 = system: PC-3
# RXF 393 = system: RXF 393
# SF-268 = system: SF-268
# HOP-92 = system: HOP-92
# OVCAR-4 = system: OVCAR-4
# U-251 = system: U-251
# SK-MEL-5 = system: SK-MEL-5
# EKVX = system: EKVX
# MDA-MB-435 = system: MDA-MB-435
# NCI-H226 = system: NCI-H226
# HOP-62 = system: HOP-62
# Malme-3M = system: Malme-3M
# KM12 = system: KM12
# NCI-H460 = system: NCI-H460
SMILES,GI50 (UACC-62),GI50 (NCI/ADR-RES),GI50 (786-0),GI50 (M14),GI50 (ACHN),GI50 (OVCAR-5),GI50 (PC-3),GI50 (RXF 393),GI50 (SF-268),GI50 (HOP-92),GI50 (OVCAR-4),GI50 (U-251),GI50 (SK-MEL-5),GI50 (EKVX),GI50 (MDA-MB-435),GI50 (NCI-H226),GI50 (HOP-62),GI50 (Malme-3M),GI50 (KM12),GI50 (NCI-H460)
CC(C)(C)OCC1NC(=O)[C@@H]2Cc3c([nH]c4ccccc34)C(C3CCCCC3)N2C1=O (stereo not given in full),14.9 µM (inactive),21.1 µM (inactive),22.5 µM (inactive),19.3 µM (inactive),27 µM (inactive),24.2 µM (inactive),18.8 µM (inactive),15.6 µM (inactive),28.8 µM (inactive),22.1 µM (inactive),23.9 µM (inactive),20.4 µM (inactive),15.2 µM (inactive),27.2 µM (inactive),16 µM (inactive),22 µM (inactive),16.1 µM (inactive),21.1 µM (inactive),17.8 µM (inactive),
COc1cccc(C2c3cc4c(cc3OC(C)(N3CCCC3)C2C)OCO4)c1O (stereo not given),4.6 µM (inactive),2.72 µM (inactive),4.71 µM (inactive),3.08 µM (inactive),11.3 µM (inactive),8.36 µM (inactive),3.32 µM (inactive),2.89 µM (inactive),8.22 µM (inactive),11.5 µM (inactive),13.3 µM (inactive),4.35 µM (inactive),2.57 µM (inactive),7.91 µM (inactive),1.63 µM (inactive),4.49 µM (inactive),7.98 µM (inactive),3.89 µM (inactive),3.14 µM (inactive),5.5 µM (inactive)
CC1(C)C(=O)N(O)C(C)(C)N1N=O,,> 10 µM (inactive),> 10 µM (inactive),> 10 µM (inactive),> 10 µM (inactive),> 10 µM (inactive),> 10 µM (inactive),> 10 µM (inactive),> 10 µM (inactive),> 10 µM (inactive),> 10 µM (inactive),> 10 µM (inactive),,> 10 µM (inactive),> 10 µM (inactive),> 10 µM (inactive),> 10 µM (inactive),> 10 µM (inactive),> 10 µM (inactive),> 10 µM (inactive)
Cc1nc2ccc(F)cc2c(Cl)c1CCCl,27.7 µM (inactive),43 µM (inactive),34.1 µM (inactive),,78.7 µM (inactive),,44.4 µM (inactive),21.7 µM (inactive),37.1 µM (inactive),36 µM (inactive),83.8 µM (inactive),30.4 µM (inactive),22 µM (inactive),13.9 µM (inactive),26.9 µM (inactive),54.1 µM (inactive),84.9 µM (inactive),31.6 µM (inactive),28.1 µM (inactive),30.5 µM (inactive)
O=C(N/N=C\c1cccc2c([N+](=O)[O-])cccc12)Nc1ccccc1,10.4 µM (inactive),12.4 µM (inactive),16.6 µM (inactive),12.9 µM (inactive),14.2 µM (inactive),15.1 µM (inactive),14.8 µM (inactive),7.53 µM (inactive),21.6 µM (inactive),12.3 µM (inactive),11.6 µM (inactive),7.08 µM (inactive),14.1 µM (inactive),15.5 µM (inactive),9.29 µM (inactive),13.6 µM (inactive),16.2 µM (inactive),14.1 µM (inactive),14.9 µM (inactive),14.2 µM (inactive)
Cc1cc(O)ccc1C1(c2ccc(F)cc2)OC(=O)c2ccccc21 (stereo not given),3.39 µM (inactive),0.415 µM (active),8.47 µM (inactive),13.6 µM (inactive),4.17 µM (inactive),6.64 µM (inactive),2.24 µM (inactive),1.24 µM (inactive),7.73 µM (inactive),1.99 µM (inactive),0.289 µM (active),15.5 µM (inactive),11.3 µM (inactive),3.18 µM (inactive),13.8 µM (inactive),2.38 µM (inactive),5.65 µM (inactive),12.7 µM (inactive),,15.6 µM (inactive)
OCCOCn1nncc1Cn1ncc2c(O)ncnc21,> 100 µM (inactive),> 100 µM (inactive),52 µM (inactive),> 100 µM (inactive),> 100 µM (inactive),> 100 µM (inactive),55.1 µM (inactive),> 100 µM (inactive),> 100 µM (inactive),> 100 µM (inactive),> 100 µM (inactive),> 100 µM (inactive),47.5 µM (inactive),> 100 µM (inactive),26.9 µM (inactive),> 100 µM (inactive),> 100 µM (inactive),> 100 µM (inactive),32.6 µM (inactive),49.4 µM (inactive)
COc1cnnc2c(C)c(-c3ccccc3)nn12,42.4 µM (inactive),> 100 µM (inactive),> 84.9 µM (inactive),> 68.4 µM (inactive),68.9 µM (inactive),> 100 µM (inactive),> 86.5 µM (inactive),0.436 µM (active),82.4 µM (inactive),59.3 µM (inactive),> 79.4 µM (inactive),> 70.3 µM (inactive),> 75.5 µM (inactive),> 100 µM (inactive),77.4 µM (inactive),> 100 µM (inactive),> 69.3 µM (inactive),39.6 µM (inactive),> 75.2 µM (inactive),66.1 µM (inactive)
Cc1c(C)c(C)c(-n2c(=O)n(C)c(=O)n2-n2c(=O)n(C)c(=O)n2-c2c(C)c(C)c(C)c(C)c2C)c(C)c1C,> 100 µM (inactive),61.2 µM (inactive),> 100 µM (inactive),> 100 µM (inactive),,> 100 µM (inactive),> 100 µM (inactive),> 100 µM (inactive),> 100 µM (inactive),> 100 µM (inactive),> 100 µM (inactive),> 100 µM (inactive),> 100 µM (inactive),> 100 µM (inactive),> 100 µM (inactive),37.8 µM (inactive),,> 100 µM (inactive),> 100 µM (inactive),> 100 µM (inactive)
COc1cc(-c2cc(=O)c3c(OC)c(OC)c(OC)c(OC)c3o2)c(OC)c(OC)c1OC,21.2 µM (inactive),17.9 µM (inactive),47.5 µM (inactive),51.5 µM (inactive),22 µM (inactive),> 100 µM (inactive),14.3 µM (inactive),28.6 µM (inactive),63.1 µM (inactive),13.9 µM (inactive),30.7 µM (inactive),48.1 µM (inactive),36.1 µM (inactive),66.8 µM (inactive),45.8 µM (inactive),38.1 µM (inactive),> 100 µM (inactive),23.8 µM (inactive),21.9 µM (inactive),36.1 µM (inactive)
Cc1ccc(-c2cnc(NC3OC(COC(=O)c4ccccc4)C(OC(=O)c4ccccc4)C(OC(=O)c4ccccc4)C3OC(=O)c3ccccc3)s2)cc1 (stereo not given),94.6 µM (inactive),> 100 µM (inactive),44.6 µM (inactive),40.6 µM (inactive),> 100 µM (inactive),61.7 µM (inactive),> 100 µM (inactive),> 100 µM (inactive),> 100 µM (inactive),20.4 µM (inactive),68.1 µM (inactive),> 100 µM (inactive),> 100 µM (inactive),> 100 µM (inactive),> 100 µM (inactive),> 100 µM (inactive),> 100 µM (inactive),> 100 µM (inactive),,> 100 µM (inactive)
O=C1NC(=O)C(C(CC(=O)c2ccc([N+](=O)[O-])cc2)c2ccccc2)C(=O)N1 (stereo not given),77.1 µM (inactive),> 100 µM (inactive),> 100 µM (inactive),> 100 µM (inactive),> 100 µM (inactive),> 100 µM (inactive),55.8 µM (inactive),2.77 µM (inactive),19.9 µM (inactive),> 100 µM (inactive),> 100 µM (inactive),49.4 µM (inactive),41.6 µM (inactive),,49.8 µM (inactive),> 100 µM (inactive),> 100 µM (inactive),0.0334 µM (active),14.8 µM (inactive),> 100 µM (inactive)
O=S(=O)(O)c1ccc2cc(/N=N/c3c(O)ccc4ccccc34)ccc2c1,> 100 µM (inactive),> 100 µM (inactive),> 100 µM (inactive),> 100 µM (inactive),> 100 µM (inactive),> 100 µM (inactive),> 100 µM (inactive),> 100 µM (inactive),> 100 µM (inactive),> 100 µM (inactive),> 100 µM (inactive),> 100 µM (inactive),> 100 µM (inactive),> 100 µM (inactive),> 100 µM (inactive),> 100 µM (inactive),> 100 µM (inactive),82.6 µM (inactive),97.5 µM (inactive),> 100 µM (inactive)
CC(C)(C)OC(=O)NC(CS(=O)(=O)O)C(=O)O (stereo not given),> 100 µM (inactive),> 100 µM (inactive),> 100 µM (inactive),> 100 µM (inactive),> 100 µM (inactive),> 100 µM (inactive),> 100 µM (inactive),> 100 µM (inactive),> 100 µM (inactive),> 100 µM (inactive),> 100 µM (inactive),> 100 µM (inactive),> 100 µM (inactive),> 100 µM (inactive),> 100 µM (inactive),> 100 µM (inactive),> 100 µM (inactive),> 100 µM (inactive),> 100 µM (inactive),> 100 µM (inactive)
